The results in this text go back to ChEMBL document CHEMBL1152029 (1997).

The source made the active and inactive calls. The rule behind the calls is not given here.

Experiment [1] concerns Mus musculus. The experiment in a line: %Survival of compound was measured using CD2F1 male mice in group of ten at 469 mg/kg dose on day 30. In kind it is functional. Conditions: 720 h.
Experiment [2] has as its system V79. The experiment in a line: The in vitro radioprotective effect measured against Chinese hamster V-79 cells at concentration of 0.1 mM. The experiment is classed as functional, Cricetulus griseus.
In experiment [3] the test system is Mus musculus. The experiment in a line: The percent increase in life span was measured using CD2F1 male mice at 469 mg/kg dose. In kind it is functional.
For experiment [4], the system named is V79. Briefly: The cytotoxicity in vitro against Chinese hamster V-79 cells at concentration of 1 mM. Conditions: Cricetulus griseus, read-out: Survival. The experiment is classed as functional.
A short description of experiment [5]: Mean survival time of treated group(T) and Mean survival time of control group(C) was measured using CD2F1 male mice at 469 mg/kg dose. In kind it is functional.
Experiment [6] relates to V79. Briefly: The cytotoxicity in vitro against Chinese hamster V-79 cells at concentration of 0.5 mM. Particulars: Cricetulus griseus, read-out: Survival. The experiment is classed as functional.
The test system of experiment [7] is V79. Briefly: The cytotoxicity in vitro against Chinese hamster V-79 cells at concentration of 0.1 mM. In kind it is functional. Conditions: Cricetulus griseus, read-out: Survival.
The test system of experiment [8] is Mus musculus. The experiment in a line: Mean survival time of compound was measured using CD2F1 male mice in group of ten at 469 mg/kg dose on day 30. The experiment is classed as functional.
Experiment [9] relates to Mus musculus. The experiment in a line: Mean survival time of compound was measured using CD2F1 male mice in group of ten at 239 mg/kg dose on day 30. The experiment is classed as functional.
In experiment [10] the test system is Mus musculus. Briefly: %Survival of compound was measured using CD2F1 male mice in group of ten at 239 mg/kg dose on day 30. The experiment is classed as functional. Particulars: 720 h.
In experiment [11] the test system is Mus musculus. The experiment in a line: Mean survival time of treated group(T) and Mean survival time of control group(C) was measured using CD2F1 male mice at 239 mg/kg dose. In kind it is functional.
The subject of experiment [12] is Mus musculus. The experiment in a line: The percent increase in life span was measured using CD2F1 male mice at 239 mg/kg dose. The experiment is classed as functional.
The subject of experiment [13] is Mus musculus. Briefly: The percent increase in life span was measured using CD2F1 male mice at 400 mg/kg dose. The experiment is classed as functional.
For experiment [14], the system named is Mus musculus. Briefly: Mean survival time of compound was measured using CD2F1 male mice in group of ten at 400 mg/kg dose on day 30. In kind it is functional.
In experiment [15] the test system is V79. Briefly: The cytotoxicity in vitro against Chinese hamster V-79 cells at concentration of 0.5 mM; NA= Not active. The experiment is classed as functional, cell-based. Particulars: Cricetulus griseus.
In experiment [16] the test system is V79. Briefly: The cytotoxicity in vitro against Chinese hamster V-79 cells at concentration of 0.1 mM; NA= Not active. Conditions: Cricetulus griseus. In kind it is functional, cell-based.
The test system of experiment [17] is Mus musculus. The experiment in a line: %Survival of compound was measured using CD2F1 male mice in group of ten at 400 mg/kg dose on day 30. Conditions: 720 h. In kind it is functional.
A short description of experiment [18]: Mean survival time of treated group(T) and Mean survival time of control group(C) was measured using CD2F1 male mice at 400 mg/kg dose. In kind it is functional.

The compound `CNCCCNCCCSP(=O)(O)O` returned a survival at 469 mg/kg in experiment [1] of 60%. This compound registered a DMF in experiment [2] of 1.5. The compound further came in with an increase in lifespan (ILS) at 469 mg/kg in experiment [3] of 18%. The viability at 1000 µM in experiment [4] is 90%. For the same compound, the Ratio in experiment [5] was found to be 1.94. In [6], the viability at 500 µM was found to be 99%. In addition, in experiment [7], the viability at 100 µM amounted to 93%. Moreover, the MST in experiment [8] turned out to be 20.
For the compound `NCCCNCCSP(=O)(O)O` [AMIFOSTINE], in experiment [2], the DMF is on record as 1.4. In addition, the MST in experiment [9] was 27. The survival at 239 mg/kg in [10] turned out to be 80%. Besides, the viability at 1000 µM in [4] came out at 0%. In experiment [11], the Ratio came out at 2.63. For the same compound, the viability at 500 µM in [6] was 2%. The ILS at 239 mg/kg in experiment [12] is 130%. Further, the viability at 100 µM in experiment [7] worked out at 100%.
The compound `CNCCCNCCCSP(=O)(Oc1ccc(Cl)cc1)SCCCNCCCNC` displayed an ILS at 400 mg/kg in experiment [13] of 73%. Moreover, in experiment [2], the DMF is on record as 1.65. The compound further registered an MST in experiment [14] of 23. For the same compound, the viability at 1000 µM in [4] is 94%. Also, the Survival entry in experiment [15] and in experiment [16] was “inactive” in each case. The survival at 400 mg/kg in experiment [17] was 50%. Besides, the Ratio in experiment [18] was found to be 2.26.
